Eight compounds from patent US6667413B2, “Uracil compounds and use thereof” (Sumitomo Chemical Company, Limited, priority 1999, dated 2003) can be followed below.

The structures appear in SMILES notation.

Type in all cases: in vivo
Experiment [1] deals with Ivyleaf morningglory (Ipomoea hederacea). Kind of experiment: Test Example 1: foliar treatment, herbicidal activity. The conditions noted are these: foliar spray, 125 g/ha, 7 days after application. The procedure: (§1) A cylindrical plastic pot having a diameter of 10 cm and a depth of 10 cm was filled with soil and then seeded with Ivyleaf morningglory (Ipomoea hederacea), velvetleaf (Abutilon theophrasti), barnyardgrass (Echinochloa crus-galli) and blackgrass (Alopecurus myosuroides). These test plants were grown in a greenhouse for 9 days. Then, each of compounds 1-1,2-1, 3-1,3-2, 3-11 and 3-12 was formulated into an emulsifiable concentrate according to Formulation Example 2 and then diluted to the prescribed amount with water containing a spreading agent and the dilution was uniformly sprayed over the foliage of the test plants with a sprayer at a rate of 1000 liters per hectare After the application, the test plants were grown in the greenhouse for 7 days, and the herbicidal activity of the applied composition was determined.

Experiment [2] concerns barnyardgrass (Echinochloa crus-galli). Described as above. The conditions noted are these: foliar spray, 125 g/ha, 7 days after application. The protocol: as §1
Experiment [3] deals with blackgrass (Alopecurus myosuroides). The description is as above. As to conditions: foliar spray, 125 g/ha, 7 days after application. The protocol:
as §1

The test system of experiment [4] is velvetleaf (Abutilon theophrasti). Described as above. The conditions noted are these: foliar spray, 125 g/ha, 7 days after application. The procedure:
as §1

Experiment [5] concerns Ivyleaf morningglory (Ipomoea hederacea). Nature of the experiment: Test Example 2: soil surface treatment, herbicidal activity. The conditions noted are these: sprayed over the surface of the soil, 500 g/ha, 7 days after application. From the text: (§2) A cylindrical plastic pot having a diameter of 10 cm and a depth of 10 cm was filled with soil and then seeded with Ivyleaf morningglory (Ipomoea hederacea), velvetleaf (Abutilon theophrasti) and barnyardgrass (Echinochloa crus-galli). Then, each of the compounds 1-1,2-1 and 3-1 was formulated into an emulsifiable concentrate according to Formulation Example 2 and then diluted to the prescribed amount with water, and the dilution was uniformly sprayed over the surface of the soil with a sprayer at a rate of 1000 liters per hectare. After the application, the test plants were grown in the greenhouse for 7 days, and the herbicidal activity of the applied composition was examined.

Experiment [6] has as its system barnyardgrass (Echinochloa crus-galli). Described as above. The conditions noted are these: sprayed over the surface of the soil, 500 g/ha, 7 days after application.
Description: as §2

In experiment [7] the test system is velvetleaf (Abutilon theophrasti). The description is as above. The conditions noted are these: sprayed over the surface of the soil, 500 g/ha, 7 days after application.
Description: as §2

Experiment [8] relates to common chickweed (Stellaria media). Kind of experiment: Test Example 5: foliar treatment, herbicidal activity index. More on the design: key: 0: no or little difference in the degree of germination or growth between the treated and the untreated tested plants at the time of examination; 10: the test plants died complete or their germination or growth was completely inhibited. As to conditions: foliar spray, 10 g/ha, 9 days after application, index 0 to 10. The procedure:
A cylindrical plastic pot having a diameter of 18.5 cm and a depth of 15 cm was filled with soil and then seeded with common chickweed (Stellaria media). These test plants were grown in a greenhouse for 29 days. After then, each of the compound 1-2 and Compound A was formulated into an emulsifiable concentrate according to Formulation Example 2 and then diluted to the prescribed amount with water containing a spreading agent and the dilution was uniformly sprayed over the foliage of the test plants with a sprayer at a rate of 1000 liters per hectare. After the application, the test plants were grown in the greenhouse for 9 days, and the herbicidal activity was examined.

The test system of experiment [9] is Ivyleaf morningglory (Ipomoea hederacea). Nature of the experiment: Test Example 3: foliar treatment, herbicidal activity. The conditions noted are these: foliar spray, 500 g/ha, 7 days after application. The protocol: (§3) A cylindrical plastic pot having a diameter of 10 cm and a depth of 10 cm was filled with soil and then seeded with Ivyleaf morningglory (Ipomoea hederacea), velvetleaf (Abutilon theophrasti) and barnyardgrass (Echinochloa crus-galli). These test plants were grown in a greenhouse for 9 days. After then, each of the compounds 3-16, 3-20 and 3-198 was formulated into an emulsifiable concentrate according to Formulation Example 2 and then diluted to the prescribed amount with water containing a spreading agent and the dilution was uniformly sprayed over the foliage of the test plants with a sprayer at a rate of 1000 liters per hectare. After the application, the test plants were grown in the greenhouse for 7 days, and the herbicidal activity was examined.

For experiment [10], the system named is barnyardgrass (Echinochloa crus-galli). The experiment is described as above. The conditions noted are these: foliar spray, 500 g/ha, 7 days after application. The procedure:
as §3

Experiment [11] deals with velvetleaf (Abutilon theophrasti). The experiment is described as above. As to conditions: foliar spray, 500 g/ha, 7 days after application. The procedure: as §3
The test system of experiment [12] is Ivyleaf morningglory (Ipomoea hederacea). Kind of experiment: Test Example 4: soil surface treatment, herbicidal activity. The conditions noted are these: sprayed over the surface of the soil, 2000 g/ha, 7 days after application.
Description: as §2, with “theophrasti),” for “theophrasti) and”, “crus-galli) and blackgrass (Alopecurus myosuroides).” for “crus-galli).”, “3-2,3-11, 3-12, 3-16, 3-20” for “1-1,2-1”, “3-198” for “3-1”

In experiment [13] the test system is barnyardgrass (Echinochloa crus-galli). The description is as above. The conditions noted are these: sprayed over the surface of the soil, 2000 g/ha, 7 days after application.
Description: as §2, with “theophrasti),” for “theophrasti) and”, “crus-galli) and blackgrass (Alopecurus myosuroides).” for “crus-galli).”, “3-2,3-11, 3-12, 3-16, 3-20” for “1-1,2-1”, “3-198” for “3-1”

The subject of experiment [14] is blackgrass (Alopecurus myosuroides). Described as above. The conditions noted are these: sprayed over the surface of the soil, 2000 g/ha, 7 days after application.
Description: as §2, with “theophrasti),” for “theophrasti) and”, “crus-galli) and blackgrass (Alopecurus myosuroides).” for “crus-galli).”, “3-2,3-11, 3-12, 3-16, 3-20” for “1-1,2-1”, “3-198” for “3-1”

Experiment [15] deals with velvetleaf (Abutilon theophrasti). Described as above. As to conditions: sprayed over the surface of the soil, 2000 g/ha, 7 days after application.
Description: as §2, with “theophrasti),” for “theophrasti) and”, “crus-galli) and blackgrass (Alopecurus myosuroides).” for “crus-galli).”, “3-2,3-11, 3-12, 3-16, 3-20” for “1-1,2-1”, “3-198” for “3-1”

In the case of `COC(=O)C(C)Oc1ccc(Oc2cc(-n3c(=O)cc(C(F)(F)F)n(C)c3=O)c(F)cc2Cl)cc1` (centres unmarked) [Compound 1-1, methyl 2-[4-{2-chloro-4-fluoro-5-[3-methyl-2,6-dioxo-4-(trifluoromethyl)-1,2,3,6-tetrahydropyrimidin-1-yl]phenoxy}phenoxy]propionate], the “growth of Ivyleaf morningglory” value in experiment [1] is on record as “completely controlled”. Moreover, the growth of barnyardgrass result in experiment [2] is reported as “completely controlled”. In experiment [3], the growth of blackgrass entry is given as “completely controlled”. For the same compound, in experiment [4], the growth of velvetleaf entry is recorded as “completely controlled”. Moreover, the “emergence of Ivyleaf morningglory” value in experiment [5] is given as “completely controlled”. The emergence of barnyardgrass entry in experiment [6] is “completely controlled”. For the same compound, in experiment [7], the emergence of velvetleaf entry is listed as “completely controlled”.

`CCOC(=O)C(C)Oc1ccc(Oc2cc(-n3c(=O)cc(C(F)(F)F)n(C)c3=O)c(F)cc2Cl)cc1` (centres unmarked) [Compound 1-2, ethyl 2-[4-{2-chloro-4-fluoro-5-[3-methyl-2,6-dioxo-4-(trifluoromethyl)-1,2,3,6-tetrahydropyrimidin-1-yl]phenoxy}phenoxy]propionate] had a Herbicidal activity in experiment [8] of 10.

For `COC(=O)C(C)Oc1cccc(Oc2cc(-n3c(=O)cc(C(F)(F)F)n(C)c3=O)c(F)cc2Cl)c1` (centres unmarked) [Compound 2-1, methyl 2-[3-{2-chloro-4-fluoro-5-[3-methyl-2,6-dioxo-4-(trifluoromethyl)-1,2,3,6-tetrahydropyrimidin-1-yl]phenoxy}phenoxy]propionate], the “growth of Ivyleaf morningglory” value in experiment [1] is “completely controlled”. Further, in experiment [2], the growth of barnyardgrass entry is recorded as “completely controlled”. Moreover, the growth of blackgrass result in experiment [3] is “completely controlled”. The growth of velvetleaf result in experiment [4] is “completely controlled”. In experiment [5], the “emergence of Ivyleaf morningglory” value is “completely controlled”. Besides, the emergence of barnyardgrass result in [6] is “completely controlled”. Further, the emergence of velvetleaf result in experiment [7] is “completely controlled”.

For the compound `COC(=O)C(C)Oc1ccccc1Oc1cc(-n2c(=O)cc(C(F)(F)F)n(C)c2=O)c(F)cc1Cl` (centres unmarked) [Compound 3-1, methyl 2-[2-{2-chloro-4-fluoro-5-[3-methyl-2,6-dioxo-4-(trifluoromethyl)-1,2,3,6-tetrahydropyrimidin-1-yl]phenoxy}phenoxy]propionate], the “growth of Ivyleaf morningglory” value in experiment [1] was “completely controlled”. Moreover, the growth of barnyardgrass result in experiment [2] is given as “completely controlled”. Moreover, the growth of blackgrass entry in experiment [3] is “completely controlled”. The growth of velvetleaf result in [4] was “completely controlled”. For the same compound, the “emergence of Ivyleaf morningglory” value in [5] is recorded as “completely controlled”. Further, the emergence of barnyardgrass entry in experiment [6] is reported as “completely controlled”. For the same compound, in experiment [7], the emergence of velvetleaf result is listed as “completely controlled”.

On to `Cn1c(C(F)(F)F)cc(=O)n(-c2cc(Oc3ccccc3OCC(=O)OC(C)(C)C)c(Cl)cc2F)c1=O` [Compound 3-16], for which the “growth of Ivyleaf morningglory” value in [9] is “completely controlled”. Besides, the growth of barnyardgrass entry in experiment [10] is given as “completely controlled”. Also, the growth of velvetleaf result in experiment [11] was “completely controlled”. Further, in experiment [12], the “emergence of Ivyleaf morningglory” value is listed as “completely controlled”. In experiment [13], the emergence of barnyardgrass entry is on record as “completely controlled”. Also, the emergence of blackgrass entry in experiment [14] is reported as “completely controlled”. Further, the emergence of velvetleaf result in experiment [15] is reported as “completely controlled”.

Consider `C=CCOC(=O)COc1ccccc1Oc1cc(-n2c(=O)cc(C(F)(F)F)n(C)c2=O)c(F)cc1Cl` [Compound 3-20, allyl [2-{2-chloro-4-fluoro-5-[3-methyl-2,6-dioxo-4-(trifluoromethyl)-1,2,3,6-tetrahydropyrimidin-1-yl]phenoxy}phenoxy]acetate], for which the “growth of Ivyleaf morningglory” value in [9] is “completely controlled”. In experiment [10], the growth of barnyardgrass entry is on record as “completely controlled”. Further, in experiment [11], the growth of velvetleaf result is “completely controlled”. For the same compound, the “emergence of Ivyleaf morningglory” value in experiment [12] is “completely controlled”. In addition, the emergence of barnyardgrass result in experiment [13] is “completely controlled”. For the same compound, the emergence of blackgrass entry in [14] is “completely controlled”. The emergence of velvetleaf result in experiment [15] is “completely controlled”.

As to `CC(C)COC(=O)COc1ccccc1Oc1cc(-n2c(=O)cc(C(F)(F)F)n(C)c2=O)c(F)cc1Cl` [Compound 3-198, isobutyl [2-{2-chloro-4-fluoro-5-[3-methyl-2,6-dioxo-4-(trifluoromethyl)-1,2,3,6-tetrahydropyrimidin-1-yl]phenoxy}phenoxy]acetate], the “growth of Ivyleaf morningglory” value in [9] was “completely controlled”. Further, the growth of barnyardgrass entry in experiment [10] is listed as “completely controlled”. The growth of velvetleaf entry in experiment [11] is “completely controlled”. In experiment [12], the “emergence of Ivyleaf morningglory” value is reported as “completely controlled”. Further, the emergence of barnyardgrass result in experiment [13] was “completely controlled”. The emergence of blackgrass result in experiment [14] is given as “completely controlled”. In addition, in experiment [15], the emergence of velvetleaf entry is “completely controlled”.

For the compound `CCOC(=O)C(C)Oc1ccc(Oc2cc(-n3c(=O)cc(C(F)(F)F)n(N)c3=O)c(F)cc2Cl)cc1` (centres unmarked) [Compound A, reference compound], the Herbicidal activity in [8] was 5.
